Test results published in US20240092728A1, “HYDROXY-SUBSTITUTED SPHINGOLIPIDS” (Evonik Operations GmbH, priority 2021, published 2024).

Experiments:
[1] = system: normal human epidermal keratinocytes (NHEK); assay: DNA damage and repair after UV irradiation (Comet assay); assay type: cell-based
Protocol: (§1) The extent to which the substances of the invention are able to exert a protective effect on normal human epidermal keratinocytes (NHEK) exposed to UV irradiation was examined.
(§2) For this, corresponding investigations were carried out of biomarkers for reactive oxygen species (ROS), quantified with 2,7-dichlorodihydrofluorescein diacetate, and DNA damage and repair, quantified by the Comet assay.
6-well plates were seeded with the keratinocytes, which were incubated for 48 hours in culture medium, with the medium replenished after 24 hours. The medium was then replaced by culture medium containing the test compounds or the references (0.3 mM control) or in which they were absent (control) and the cells were incubated for 24 hours. After the preincubation, the culture medium was removed and assay medium again added and the cells were irradiated with 250 mJ/cm^2 UVB+UVA (+1.6 J/cm^2) in the absence of the compounds. The lamp used was a SOL500 solar simulator (Dr. Hönle, AG) fitted with an H2 filter. An unirradiated control condition was carried out in parallel. All experimental conditions were carried out in duplicate.
At the end of the irradiation, the culture supernatants were discarded and the cells were washed with phosphate-buffered saline (PBS) prior to analysis.
The cells were trypsinized and counted and the supernatant was removed after centrifugation. The cells were then washed with PBS solution and suspended in the same PBS solution so as to achieve a cell concentration of 1×10^5 cells/ml. The cell suspension was then mixed with molten (37° C.) 1% agarose gel of low melting point and pipetted onto the Comet microscope slides (duplicate analysis for each condition). For cell lysis, the microscope slides were immersed in a freshly prepared alkaline solution (200 mM NaOH containing 1 mM EDTA, pH>13) on an electrophoresis support. The gel electrophoresis was carried out at 21 volts for 30 minutes. The Comet microscope slides were washed twice with water, each time for 5 minutes, then washed with 70% ethanol for 5 minutes and air-dried at 37° C. for 15 minutes.
After the electrophoresis, each dried sample was stained with a DNA intercalating fluorescent dye (SYBR Green solution). The cells were then observed in epifluorescence using an automated IN Cell Analyzer™ 2200 microscope image analyser (GE Healthcare) (X10 objective lens). On excitation (ex 494 nm, em 524 nm), the DNA-bound SYBR® Green emits green light. […] If DNA damage has occurred, the alkali treatment causes the DNA to […], releasing fragments that migrate outside the cell when exposed to an electric field. The negatively charged DNA migrates to the anode, the extrusion length being proportional to the relaxation of the supercoiled structure, which is an indicator of damage. When alkaline electrophoresis conditions are employed, the distribution of the DNA between the tail and comet head can be used to determine the extent of the DNA damage. The images of the cells were analysed with OpenComet in conjunction with ImageJ software. In each replicate of the analysis, a minimum value of 500 events was analysed.

sun-stressed skin [2] = assay: In-vivo study: skin roughness on inside of forearm (Visioscan VC 98); set-up: species or system human; unit not given here; settings: formulation applied twice daily to forearm; for Decrease in roughness W2 − W0: after 2 weeks; for Decrease in roughness W4 − W0: after 4 weeks; for Decrease in roughness W8 − W0: after 8 weeks
Protocol: (§3) For the in-vivo study, 24 test subjects (male and female) with sun-stressed skin were recruited. In order to ensure sun-stressed skin, this study was carried out in the period from September to November. […] The test subjects received either two different test formulations, which they applied to one forearm each, or one test formulation. which was applied to one forearm with the second forearm remaining untreated (control). The test formulations were a vehicle and a formulation containing 0.1% of hydroxybutyroyl phytosphingosine (hydroxybutyroyl PS). The various test combinations were assigned to the test subjects randomly. The test subjects applied the test formulations for a period of 8 weeks twice daily to the inside and outside of in each case one forearm. The following measurements on the forearms were carried out before the start of application and after two, four and eight weeks: • 1. Colour measurement: A colorimeter probe (Skin-Colorimeter CL 400, Courage & Khazaka, Cologne) was used to measure the parameters L* and ITA° on the outside of the forearm. L* describes the black/white value of the skin, ITA° describes the skin tone. When skin becomes lighter, both values show an increase. • 2. Skin roughness: This parameter was determined by means of a special camera on the inside of the forearm (Visioscan VC 98, Courage & Khazaka). This camera records a digital black-and-white image of the skin. The grayscale distribution of the image can be used to determine the skin roughness. • 3. Density of the dermis: The density of the dermis was determined by ultrasound on the outside of the forearm (SkinLab Combo, Cortex Technologies, Denmark). For this, a special probe transmits an ultrasound signal to the skin and records the reflection. This reflection can be used to determine a value for the skin density. A reduced skin density is shown in particular by areas of skin that have been very strongly exposed to sunlight.

[3] = system: normal human epidermal keratinocytes (NHEK); assay: ROS production after UV irradiation (2,7-DCDHF-DA fluorescence); assay type: cell-based
Protocol: as §1, §2
The intracellular formation of reactive […] species (ROS) is inter alia a factor that leads to damage of cellular DNA by UV radiation.
96-well plates were seeded with keratinocytes, which were cultured for 24 hours in culture medium and then for a further 24 hours in assay medium. The medium was then replaced by a test medium containing the test compounds or the references (100 μM vitamin E and 10 μM EGCG) or in which they were absent (irradiated control) and the cells were preincubated for 24 hours. After preincubation, the medium was removed and replaced by assay medium, the fluorescent probe (2,7-dichlorodihydrofluorescein diacetate (10 μM 2,7-DCDHF-DA in assay medium) was added and the cells were incubated at 37° C. for 30 minutes. The cells were then washed with PBS solution and irradiated with 100 mJ/cm^2 UVB+UVA (+0.7 J/cm^2) without compounds or references. The lamp used was a SOL500 solar simulator with H2 filter (Dr. Honle, AG). After irradiation, the cells were incubated for 30 minutes. An unirradiated control and the conditions without sample (background noise) were carried out in parallel.
All experimental conditions were carried out in triplicate.
The emitted intensity of fluorescence (ex=485 nm, em=538 nm) was measured using an EnVision® (Perkin Elmer) microplate reader.
The intensity of fluorescence of the metabolized sample (DCF) was proportional to the formation of ROS. ROS production was therefore expressed as the relative intensity of fluorescence.

sun-stressed skin [4] = assay: In-vivo study: skin colour measurement (L*, ITA°) on outside of forearm; set-up: species or system human; settings: formulation applied twice daily to forearm; for ΔITA° W2 − W0 / ΔL* W2 − W0: after 2 weeks; for ΔITA° W4 − W0 / ΔL* W4 − W0: after 4 weeks; for ΔITA° W8 − W0 / ΔL* W8 − W0: after 8 weeks
Protocol: as §3

sun-stressed skin [5] = assay: In-vivo study: density of the dermis by ultrasound on outside of forearm; set-up: species or system human; unit not given here; settings: formulation applied twice daily to forearm; for Δ skin density W2 − W0: after 2 weeks; for Δ skin density W4 − W0: after 4 weeks; for Δ skin density W8 − W0: after 8 weeks
Protocol: as §3

[6] = 10 μM, 24 h preincubation, 250 mJ/cm^2 UVB+UVA
[7] = 10 μM, 24 h preincubation, 100 mJ/cm^2 UVB+UVA
[8] = 5 μM, 24 h preincubation, 100 mJ/cm^2 UVB+UVA

Molecule | protective effect against DNA damage after UV irradiation [1, 6] [%] | Decrease in roughness W2 − W0 (sun-stressed skin [2]) | Decrease in roughness W4 − W0 (sun-stressed skin [2]) | Decrease in roughness W8 − W0 (sun-stressed skin [2]) | protective effect against the formation of ROS [3, 7] [%] | ΔITA° W2 − W0 (sun-stressed skin [4]) | ΔL* W2 − W0 (sun-stressed skin [4]) | ΔITA° W4 − W0 (sun-stressed skin [4]) | ΔL* W4 − W0 (sun-stressed skin [4]) | ΔITA° W8 − W0 (sun-stressed skin [4]) | ΔL* W8 − W0 (sun-stressed skin [4]) | Δ skin density W2 − W0 (sun-stressed skin [5]) | Δ skin density W4 − W0 (sun-stressed skin [5]) | Δ skin density W8 − W0 (sun-stressed skin [5]) | protective effect against DNA damage after UV irradiation ([1]; 5 μM, 24 h preincubation, 250 mJ/cm^2 UVB+UVA) [%] | protective effect against the formation of ROS [3, 8] [%] | protective effect against DNA damage after UV irradiation ([1]; reference 0.3 mM, 250 mJ/cm^2 UVB+UVA) | protective effect against DNA damage after UV irradiation ([1]; 2 μM, 24 h preincubation, 250 mJ/cm^2 UVB+UVA) [%] | protective effect against DNA damage after UV irradiation ([1]; concentration not stated (FIG. 2)) | protective effect against the formation of ROS ([3]; concentration not stated (FIG. 1; with increasing concentration))
3-Hydroxypropioyl phytosphingosine [Ex 1c] | 13 | −1.20 | −5.55 | −6.21 | 5 | 2.41 | 0.58 | 4.89 | 1.92 | 8.67 | 2.55 | .82 | 0.98 | 0.82 | – | – | – | – | – | –
CCCCCCCCCCCCCCC[C@@H](O)[C@H](CO)NC(=O)C(O)C(C)(C)CO (some centres unmarked) [Ex 5b, 2-hydroxy-3,3-dimethyl-hydroxybutyroyl sphinganine] | – | −3.2 | −12.34 | −13.63 | – | 3.54 | 0.92 | 6.21 | 2.02 | 10.52 | 3.28 | 2.23 | 3.25 | 3.64 | 24 | 22 | – | – | – | –
O=S(=O)(O)c1cc(O)c(O)c(S(=O)(=O)O)c1 [tiron] | – | – | – | – | – | – | – | – | – | – | – | – | – | – | – | – | approximately 60% | – | – | –
CCCCCCCCCCCCCCC(O)C(O)C(CO)NC(=O)C(O)C(C)(C)CO (centres unmarked) [Example 5, 2-hydroxy-3,3-dimethyl-hydroxybutyroyl phytosphingosine] | – | – | – | – | – | – | – | – | – | – | – | – | – | – | – | 38 | – | 39 | – | –
6-Hydroxyhexanoyl phytosphingosine [Ex 1b] | – | −6.20 | −14.36 | −15.88 | – | 5.11 | 1.38 | 7.53 | 2.51 | 12.24 | 4.38 | 3.33 | 4.24 | 4.63 | – | – | – | – | – | –
Ceramide 3 [Cer 3] | 12 | 0.05 | −5.12 | −4.66 | 4 | 2.34 | 0.60 | 5.21 | 1.82 | 8.79 | 2.61 | 1.20 | 1.50 | 1.80 | – | – | – | – | – | –
CCCCCCCCCCCCCC[C@@H](O)[C@@H](O)[C@@H](N)CO [phytosphingosine] | – | – | – | – | – | – | – | – | – | – | – | – | – | – | – | – | – | – | cannot be demonstrated | No significant protective effect
